± gives the expanded uncertainty stated by the source.
Assays:
[1] = xn = mol fraction of the nth substance listed; conditions: 101 kPa, Liquid; for speed of sound: Pulse-echo method
[2] = refractive index (Na D-line) (dimensionless); xn = mol fraction of the nth substance listed; conditions: 101 kPa, Liquid, Standard Abbe refractometry

Cc1ccc(C)cc1 [1,4-dimethylbenzene] + C1CCCCC1
speed of sound ([1]; 298.15 K, x2 = 0): 1310 ± 2 m/s | speed of sound ([1]; 298.15 K, x2 = 0.0459): 1306 ± 2 m/s | speed of sound ([1]; 298.15 K, x2 = 0.0952): 1301 ± 2 m/s | speed of sound ([1]; 298.15 K, x2 = 0.1948): 1292 ± 2 m/s | speed of sound ([1]; 298.15 K, x2 = 0.2874): 1284 ± 2 m/s | speed of sound ([1]; 298.15 K, x2 = 0.3929): 1275 ± 2 m/s | speed of sound ([1]; 298.15 K, x2 = 0.4964): 1269 ± 2 m/s | speed of sound ([1]; 298.15 K, x2 = 0.5938): 1263 ± 2 m/s | speed of sound ([1]; 298.15 K, x2 = 0.6949): 1258 ± 2 m/s | speed of sound ([1]; 298.15 K, x2 = 0.7906): 1254 ± 2 m/s | speed of sound ([1]; 298.15 K, x2 = 0.8927): 1253 ± 2 m/s | speed of sound ([1]; 298.15 K, x2 = 0.9493): 1253 ± 2 m/s | mass density ([1]; 298.15 K, x2 = 0): 856.6 ± 0.5 kg/m3 | mass density ([1]; 298.15 K, x2 = 0.0459): 852.9 ± 0.5 kg/m3 | mass density ([1]; 298.15 K, x2 = 0.0952): 848.6 ± 0.5 kg/m3 | mass density ([1]; 298.15 K, x2 = 0.1948): 840.1 ± 0.5 kg/m3 | mass density ([1]; 298.15 K, x2 = 0.2874): 832.3 ± 0.5 kg/m3 | mass density ([1]; 298.15 K, x2 = 0.3929): 823 ± 0.5 kg/m3 | mass density ([1]; 298.15 K, x2 = 0.4964): 814.1 ± 0.5 kg/m3 | mass density ([1]; 298.15 K, x2 = 0.5938): 805.7 ± 0.5 kg/m3 | mass density ([1]; 298.15 K, x2 = 0.6949): 797.2 ± 0.5 kg/m3 | mass density ([1]; 298.15 K, x2 = 0.7906): 789.5 ± 0.5 kg/m3 | mass density ([1]; 298.15 K, x2 = 0.8927): 781.5 ± 0.5 kg/m3 | mass density ([1]; 298.15 K, x2 = 0.9493): 777.5 ± 0.5 kg/m3 | speed of sound ([1]; 313.15 K, x2 = 0): 1248 ± 2 m/s | speed of sound ([1]; 313.15 K, x2 = 0.0494): 1243 ± 2 m/s | speed of sound ([1]; 313.15 K, x2 = 0.1056): 1238 ± 2 m/s | speed of sound ([1]; 313.15 K, x2 = 0.2078): 1228 ± 2 m/s | speed of sound ([1]; 313.15 K, x2 = 0.3149): 1218 ± 2 m/s | speed of sound ([1]; 313.15 K, x2 = 0.4156): 1209 ± 2 m/s | speed of sound ([1]; 313.15 K, x2 = 0.5115): 1202 ± 2 m/s | speed of sound ([1]; 313.15 K, x2 = 0.6083): 1195 ± 2 m/s | speed of sound ([1]; 313.15 K, x2 = 0.7079): 1189 ± 2 m/s | speed of sound ([1]; 313.15 K, x2 = 0.8167): 1184 ± 2 m/s | speed of sound ([1]; 313.15 K, x2 = 0.9109): 1182 ± 2 m/s | speed of sound ([1]; 313.15 K, x2 = 0.9601): 1181 ± 2 m/s | mass density ([1]; 313.15 K, x2 = 0): 843.5 ± 0.5 kg/m3 | mass density ([1]; 313.15 K, x2 = 0.0494): 839.4 ± 0.5 kg/m3 | mass density ([1]; 313.15 K, x2 = 0.1056): 834.5 ± 0.5 kg/m3 | mass density ([1]; 313.15 K, x2 = 0.2078): 825.8 ± 0.5 kg/m3 | mass density ([1]; 313.15 K, x2 = 0.3149): 816.5 ± 0.5 kg/m3 | mass density ([1]; 313.15 K, x2 = 0.4156): 807.5 ± 0.5 kg/m3 | mass density ([1]; 313.15 K, x2 = 0.5115): 799.2 ± 0.5 kg/m3 | mass density ([1]; 313.15 K, x2 = 0.6083): 790.9 ± 0.5 kg/m3 | mass density ([1]; 313.15 K, x2 = 0.7079): 782.5 ± 0.5 kg/m3 | mass density ([1]; 313.15 K, x2 = 0.8167): 773.7 ± 0.5 kg/m3 | mass density ([1]; 313.15 K, x2 = 0.9109): 766.2 ± 0.5 kg/m3 | mass density ([1]; 313.15 K, x2 = 0.9601): 762.5 ± 0.5 kg/m3 | refractive index ([2]; 298.15 K, x2 = 0): 1.49312 ± 0.00069 | refractive index ([2]; 298.15 K, x2 = 0.0459): 1.49003 ± 0.0007 | refractive index ([2]; 298.15 K, x2 = 0.0952): 1.4866 ± 0.0007 | refractive index ([2]; 298.15 K, x2 = 0.1948): 1.47959 ± 0.0007 | refractive index ([2]; 298.15 K, x2 = 0.2874): 1.47324 ± 0.00069 | refractive index ([2]; 298.15 K, x2 = 0.3929): 1.4656 ± 0.00069 | refractive index ([2]; 298.15 K, x2 = 0.4964): 1.45843 ± 0.00069 | refractive index ([2]; 298.15 K, x2 = 0.5938): 1.45142 ± 0.00068 | refractive index ([2]; 298.15 K, x2 = 0.6949): 1.44417 ± 0.00068 | refractive index ([2]; 298.15 K, x2 = 0.7906): 1.43762 ± 0.00068 | refractive index ([2]; 298.15 K, x2 = 0.8927): 1.43057 ± 0.00068 | refractive index ([2]; 298.15 K, x2 = 0.9493): 1.42692 ± 0.00068 | refractive index ([2]; 313.15 K, x2 = 0): 1.48444 ± 0.00069 | refractive index ([2]; 313.15 K, x2 = 0.0494): 1.48145 ± 0.00068 | refractive index ([2]; 313.15 K, x2 = 0.1056): 1.47781 ± 0.00066 | refractive index ([2]; 313.15 K, x2 = 0.2078): 1.47072 ± 0.00064 | refractive index ([2]; 313.15 K, x2 = 0.3149): 1.46341 ± 0.00063 | refractive index ([2]; 313.15 K, x2 = 0.4156): 1.45628 ± 0.0006 | refractive index ([2]; 313.15 K, x2 = 0.5115): 1.44953 ± 0.0006 | refractive index ([2]; 313.15 K, x2 = 0.6083): 1.44272 ± 0.00062 | refractive index ([2]; 313.15 K, x2 = 0.7079): 1.43584 ± 0.00067 | refractive index ([2]; 313.15 K, x2 = 0.8167): 1.42845 ± 0.00061 | refractive index ([2]; 313.15 K, x2 = 0.9109): 1.42167 ± 0.00049 | refractive index ([2]; 313.15 K, x2 = 0.9601): 1.41809 ± 0.00045

Cc1ccc(C)cc1 [1,4-dimethylbenzene] + C1CCCCCCC1
speed of sound ([1]; 298.15 K, x2 = 0): 1310 ± 2 m/s | mass density ([1]; 298.15 K, x2 = 0): 856.6 ± 0.5 kg/m3 | speed of sound ([1]; 313.15 K, x2 = 0): 1248 ± 2 m/s | mass density ([1]; 313.15 K, x2 = 0): 843.5 ± 0.5 kg/m3 | refractive index ([2]; 298.15 K, x2 = 0): 1.49312 ± 0.00069 | refractive index ([2]; 313.15 K, x2 = 0): 1.48444 ± 0.00069

Cc1ccc(C)cc1 [1,4-dimethylbenzene] + CC1CCCCC1
speed of sound ([1]; 298.15 K, x2 = 0): 1310 ± 2 m/s | mass density ([1]; 298.15 K, x2 = 0): 856.6 ± 0.5 kg/m3 | speed of sound ([1]; 313.15 K, x2 = 0): 1248 ± 2 m/s | mass density ([1]; 313.15 K, x2 = 0): 843.5 ± 0.5 kg/m3 | refractive index ([2]; 298.15 K, x2 = 0): 1.49312 ± 0.001 | refractive index ([2]; 313.15 K, x2 = 0): 1.48444 ± 0.001

C1CCCCC1 [cyclohexane] + Cc1cc(C)cc(C)c1
speed of sound ([1]; 298.15 K, x1 = 1): 1255 ± 2 m/s | mass density ([1]; 298.15 K, x1 = 1): 773.9 ± 0.5 kg/m3 | speed of sound ([1]; 313.15 K, x1 = 1): 1182 ± 2 m/s | mass density ([1]; 313.15 K, x1 = 1): 759.6 ± 0.5 kg/m3 | refractive index ([2]; 298.15 K, x1 = 1): 1.4236 ± 0.00064 | refractive index ([2]; 313.15 K, x1 = 1): 1.41516 ± 0.00064

C1CCCCC1 [cyclohexane] + Cc1ccc(C)cc1
speed of sound ([1]; 298.15 K, x1 = 1): 1255 ± 2 m/s | mass density ([1]; 298.15 K, x1 = 1): 773.9 ± 0.5 kg/m3 | speed of sound ([1]; 313.15 K, x1 = 1): 1182 ± 2 m/s | mass density ([1]; 313.15 K, x1 = 1): 759.6 ± 0.5 kg/m3 | refractive index ([2]; 298.15 K, x1 = 1): 1.4236 ± 0.00064 | refractive index ([2]; 313.15 K, x1 = 1): 1.41516 ± 0.00064

C1CCCCC1 [cyclohexane] + Cc1cccc(C)c1
speed of sound ([1]; 298.15 K, x1 = 1): 1255 ± 2 m/s | mass density ([1]; 298.15 K, x1 = 1): 773.9 ± 0.5 kg/m3 | speed of sound ([1]; 313.15 K, x1 = 1): 1182 ± 2 m/s | mass density ([1]; 313.15 K, x1 = 1): 759.59 ± 0.5 kg/m3 | refractive index ([2]; 298.15 K, x1 = 1): 1.4236 ± 0.00064 | refractive index ([2]; 313.15 K, x1 = 1): 1.41516 ± 0.00064

C1CCCCC1 [cyclohexane] + Cc1ccccc1C
speed of sound ([1]; 298.15 K, x1 = 1): 1255 ± 2 m/s | mass density ([1]; 298.15 K, x1 = 1): 773.9 ± 0.5 kg/m3 | speed of sound ([1]; 313.15 K, x1 = 1): 1182 ± 2 m/s | mass density ([1]; 313.15 K, x1 = 1): 759.6 ± 0.5 kg/m3 | refractive index ([2]; 298.15 K, x1 = 1): 1.4236 ± 0.00064 | refractive index ([2]; 313.15 K, x1 = 1): 1.41516 ± 0.00064
